Experimental data from paper PMC12564498, “Benzo[d]imidazole–Naphthalen-Arylmethanone Regioisomers as CB1 Ligands: Evaluation of Agonism via an Indirect Cytotoxicity-Based Approach” (International Journal of Molecular Sciences, 2025).
“And” between values parts separate entries of the source, which are not always exact repeats. Equal values may be shown once. Read-outs that look alike come from different tables or passages of the source.

Key:
[1] = biological target: T1, human recombinant cannabinoid CB2 receptor (Homo sapiens, UniProt P34972); assay: CB2 radioligand displacement binding assay ([3H]CP-55940); conditions: for Ki: Cheng–Prusoff from IC50, [3H]CP-55940 0.5 nM; for Ki / IC50: mean ± SEM n = 3; for IC50: [3H]CP-55940 0.5 nM, hCB2 HEK293-EBNA membranes; for inhibition at 10 µM: displacement of [3H]CP-55940 at 10 μM compound, read-out: CB2 Max Tested µM (% Displacement)
T1 construct: purchased Perkin Elmer Inc., Singapore Pte; Ltd. RBXCB2M400UA; host or cells: HEK293-EBNA cell membranes (overexpressing)
T1 sequence (P34972 whole entry): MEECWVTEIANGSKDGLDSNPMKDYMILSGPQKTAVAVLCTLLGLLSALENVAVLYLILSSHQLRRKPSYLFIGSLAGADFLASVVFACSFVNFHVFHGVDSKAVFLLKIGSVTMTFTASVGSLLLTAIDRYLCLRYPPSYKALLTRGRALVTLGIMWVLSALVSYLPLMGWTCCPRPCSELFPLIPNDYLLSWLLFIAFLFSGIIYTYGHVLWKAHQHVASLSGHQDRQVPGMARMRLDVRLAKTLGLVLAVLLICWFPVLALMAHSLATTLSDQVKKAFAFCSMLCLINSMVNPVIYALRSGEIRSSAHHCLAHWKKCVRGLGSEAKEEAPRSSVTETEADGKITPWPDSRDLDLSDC

HL-60 cells = assay: cells; conditions: for cytotoxicity at 0.1 µM: read-out: % Toxicity HL-60; for cytotoxicity in HL-60: Figure 4, MTT
Experimental: (§1) HEK293, U87MG, and HL-60 cell lines were seeded in a flat-bottom 96-well plate at a density of 10,000 cells per well. […] All compounds were incubated at 0.1 μM in 200 μL of culture medium supplemented with 10% FBS, in a flat-bottom 96-well plate at a density of 10,000 cells per well, at 37 °C for 72 h. Next, 20 μL of a 5 mg/mL MTT solution was added, and the cells were incubated at 37 °C for 4 h. Then, they were solubilized with 10% sodium dodecyl sulfate (SDS) in 0.1 mM HCl and incubated overnight at 37 °C. Formazan absorbance of each well was measured using the EPOCH microplate reader (Biotek, Winooski, VT, USA) at a wavelength of 570 nm. […]
(§2) promyelocytic leukemia cells (HL-60) were maintained at 5% CO2 and 37 °C in DMEM, EMEM and RPMI medium, respectively containing 10% Fetal Bovine Serum and 100 U/mL penicillin and 100 […]
(§3) Cell viability: ([MTT - (3-(4,5-dimethylthiazol-2-yl)-2,5-diphenyltetrazolium bromide) - formazan] HEK293, U87MG, and HL-60 cells were first quantified to determine the exact number to be used in […]
(§4) with the Beer-Lambert(1).
(§5) HEK293, U87MG and HL-60 cell lines were seed in a flat-bottom 96-wells plate at a density of 10,000 […]
(§6) concentrations (0.001 μM to 10 μM) in 200 μL of respective culture medium supplemented with 10% fetal bovine serum (FBS), at 37 °C for 72 hours. Subsequently, 20 μL of 5 mg/mL MTT solution was added to each well, and cells were incubated at 37 °C for 4 h. The resulting formazan crystals were then solubilized with 10% sodium dodecyl sulfate (SDS) in 0.1 mM HCl, followed by overnight incubation at 37 °C. Untreated cells were used as the control, 0.1% of dimethyl sulfoxide (DMSO) as the vehicle control, and 0.2 % of Triton X-100 as a positive control for cell death. IC 50 toxicity values […]
(§7) same conditions described in the previous paragraph. […]
(§8) determined IC50. The stimulation with both CB ligands was performed simultaneously.
(§9) All compounds were incubated at 0.1 μM in 200 μL of culture medium supplemented with 10% FBS, in a flat-bottom 96-well plate at a density of 10,000 cells per well, at 37°C for 72 hours. Next, 20 μL of a 5 mg/mL MTT solution was added, and the cells were incubated at 37°C for 4 hours. Then, they were solubilized with 10% sodium dodecyl sulfate (SDS) in 0.1 mM HCl and incubated overnight at 37°C. Formazan absorbance of each well was measured using the EPOCH microplate reader (Biotek, USA) at a wavelength of 570 nm.
(§10) [1]Mosorov, V., The Lambert-Beer law in time domain form and its application.

U87MG cells = assay: cells; conditions: 72 h; for cytotoxicity at 0.1 µM: read-out: % Toxicity U87MG, 0.1 μM, 72 h, MTT, n = 3; for cytotoxicity in U87MG: Figure 4, MTT, 0.001 μM to 10 μM
Experimental: as §1, §2, §3, §4, §5, §6, §7, §8, §9, §10

HEK293 cells = assay: cells; conditions: for cytotoxicity at 0.1 µM: read-out: % Toxicity HEK293T, 0.1 μM, 72 h, MTT, n = 3; for cytotoxicity in HEK293: Figure 4, MTT; for IC50: read-out: IC50 toxicity HEK293T
Experimental: as §1, §2, §3, §4, §5, §6, §7, §8, §9, §10

[2] = biological target: T2, human cannabinoid CB1 receptor (Homo sapiens, UniProt P21554); assay: biochemical; format: binding; conditions: for Ki: Cheng–Prusoff from IC50, [3H]CP-55940 0.5 nM, read-out: CB1 Ki; for Ki / IC50: mean ± SEM n = 3; for IC50: [3H]CP-55940 0.5 nM, hCB1 HEK293-EBNA membranes, read-out: CB1 IC50; for inhibition at 10 µM: displacement of [3H]CP-55940 at 10 μM compound, read-out: CB1 Max Tested µM (% Displacement)
T2 construct: purchased Perkin Elmer Inc., Singapore Pte; Ltd. RBHCB1M400UA; host or cells: HEK293-EBNA cell membranes (overexpressing)
T2 sequence (P21554 whole entry): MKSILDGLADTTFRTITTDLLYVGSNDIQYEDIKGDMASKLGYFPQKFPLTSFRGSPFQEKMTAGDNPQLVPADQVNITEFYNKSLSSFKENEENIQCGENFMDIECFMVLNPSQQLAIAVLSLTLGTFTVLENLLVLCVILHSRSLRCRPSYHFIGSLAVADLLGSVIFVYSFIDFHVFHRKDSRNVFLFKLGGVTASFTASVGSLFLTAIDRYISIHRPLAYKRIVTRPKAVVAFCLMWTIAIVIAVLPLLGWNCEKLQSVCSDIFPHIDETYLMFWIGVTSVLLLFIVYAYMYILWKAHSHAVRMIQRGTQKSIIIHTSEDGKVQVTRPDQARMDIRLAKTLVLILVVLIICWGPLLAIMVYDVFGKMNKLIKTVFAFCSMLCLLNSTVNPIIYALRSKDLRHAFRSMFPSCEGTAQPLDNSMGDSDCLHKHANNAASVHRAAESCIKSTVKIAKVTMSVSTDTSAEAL

[3] = read-out: IC50 toxicity U87MG, MTT

Compound | Ki [1] | IC50 [1] | inhibition at 10 µM [1] | cytotoxicity at 0.1 µM (HL-60 cells; Homo sapiens, HL-60, 72 h) | cytotoxicity at 0.1 µM (U87MG cells; Homo sapiens, U-87 MG) | cytotoxicity at 0.1 µM (HEK293 cells; Homo sapiens, HEK293, 72 h) | Ki [2] | IC50 [2] | inhibition at 10 µM [2] | cytotoxicity in HL-60 (HL-60 cells; 0.001 μM to 10 μM, 72 h) | cytotoxicity in U87MG (U87MG cells) | IC50 (U87MG cells; [3]) | cytotoxicity in HEK293 (HEK293 cells; 0.001 μM to 10 μM, 72 h) | other results
COc1cccc(-c2nc3ccc(Cl)cc3n2C(=O)c2cccc3ccccc23)c1 [4b′] | ~4.46 µM and 4.46 µM | 6.76 ± 3.09 µM | 58% | 52% | 39 ± 20% | 50 ± 11% | > 10 µM | > 10 µM | 43% | – | – | – | – | % Toxicity HL-60 (HL-60 cells; 0.1 μM, 72 h, MTT, n = 3): 52 ± 13%
COc1ccc(C(=O)c2c(C)n(CCN3CCOCC3)c3cc(I)ccc23)cc1 [AM630, reference compound] | – | – | – | – | – | – | – | – | – | non-toxic | non-toxic | > 10 µM | non-toxic | IC50 (HL-60 cells; read-out: IC50 toxicity HL-60, MTT, 72 h, 0.001 μM to 10 μM): > 10 µM; IC50 (HEK293 cells; MTT, 72 h, 0.001 μM to 10 μM): > 10 µM
COc1cccc(-c2nc3cc(F)ccc3n2C(=O)c2cccc3ccccc23)c1 [Compound 5b, (5-fluoro-2-(3-methoxyphenyl)-1H-benzo[d]imidazol-1-yl)(naphthalen-1-yl)methanone] | > 10 µM | > 10 µM | 45% | 45 ± 17% | 25 ± 14% | 75 ± 17% | ~1.53 µM and 1.53 µM | 6.23 ± 3.8 µM | > 55% | – | – | – | – | –
Cc1ccc(-c2nc3cc(F)ccc3n2C(=O)c2cccc3ccccc23)o1 [Compound 5e, (5-fluoro-2-(5-methylfuran-2-yl)-1H-benzo[d]imidazol-1-yl)(naphthalen-1-yl)methanone] | > 10 µM | > 10 µM | 38.5% | 50 ± 19% | 39 ± 18% | 55 ± 23% | 1.82 ± 1.64 µM | 7.4 ± 3.28 µM | > 55% | – | – | – | – | –
Cc1c(C(=O)c2cccc3ccccc23)c2cccc3c2n1C(CN1CCOCC1)CO3 (centres unmarked) [WIN-55212-2, reference compound] | – | – | – | – | ~30% | – | – | – | – | exhibits cytotoxicity | exhibits cytotoxicity | 0.25 µM | harmlessness | displacement of specific radioligand binding (nonspecific binding definition), CB2 ([1]; 10 μM unlabeled WIN-55212-2, cannabinoid receptors): at least 84%; IC50 (HL-60 cells; Homo sapiens, HL-60, 72 h, read-out: IC50 toxicity HL-60): 1.39 µM; IC50 (HL-60 cells; Homo sapiens, HL-60, read-out: IC50 HL-60 cells as printed in the figure picture): 1.38 µM; IC50 (U87MG cells; Homo sapiens, U-87 MG, read-out: IC50 toxicity U87MG, MTT, 72 h): 0.2 µM; IC50 (HEK293 cells; Homo sapiens, HEK293, 72 h): > 10 µM
